# Assay results: patent US10653780B2, “Amino lipids and methods for the delivery of nucleic acids” (ARBUTUS BIOPHARMA CORPORATION, priority 2008, dated 2020)
# Where “and” joins values, the source holds several entries; their conditions need not be identical. Identical values can stand only once. Like-named read-outs stand apart in the source and are kept apart here.
# Tests used:
# Factor VII (FVII) = details: for FVII ED50: Table 11
# Description: It is well established that in vivo RNAi silencing of specific hepatocyte proteins can be achieved following intravenous (i.v.) administration of siRNA's encapsulated in, or associated with, select nanoparticles designed for intracellular delivery. […] In this Example, rational design in combination with in vivo screening were applied to systematically modify the structure of DLinDMA and identify molecular features that enhance or reduce cationic lipid potency. More than 30 lipids were synthesized and incorporated into nucleic acid-lipid particles, i.e., lipid nanoparticles (LN) encapsulating an siRNA (LN-siRNA) targeting Factor VII (FVII), a blood clotting component synthesized and secreted by hepatocytes that is readily measured in serum. LN-siRNA systems were prepared using the same process, lipid molar ratios and particle size to minimize effects on activity resulting from formulation characteristics other than the cationic lipid. Each formulation was administered as a single bolus injection over a range of doses enabling an estimate of the siRNA dose required to reduce FVII serum protein concentrations by 50% after 24 h (ED50).
# FVII activity was evaluated in FVII siRNA-treated animals at 24 hours after intravenous (bolus) injection in C57BL/6 mice or 48 hours after intravenous (bolus) injection in SD rats. Six to 8 week old, female C57Bl/6 mice were obtained from Charles River Laboratories and acclimated for one week prior to use in studies. Animals were held in a pathogen-free environment and all procedures involving animals were performed in accordance with the guidelines established by the Canadian Council on Animal Care.
# LN-siRNA systems containing Factor VII siRNA were diluted to the appropriate concentrations in sterile phosphate buffered saline immediately prior to use, and the formulations were administered intravenously via the lateral tail vein in a total volume of 10 ml/kg. After 24 h, animals were anaesthetised with Ketamine/Xylazine and blood was collected by cardiac puncture and processed to serum (Microtainer Serum Separator Tubes; Becton Dickinson, Franklin Lakes, N.J., USA). Serum was tested immediately or stored at −70° C. for later analysis for serum Factor VII levels.
# FVII was measured using a commercially available kit (Biophen FVII Kit™; Aniara Corp., Mason, Ohio), following the manufacturer's instructions at a microplate scale. FVII reduction was determined against untreated control animals, and the results were expressed as % Residual FVII. Five dose levels (0.1, 0.3, 0.5, 1.0, and 3.0 mg/kg) were typically used.
# Serum Factor VII levels were determined using the colorimetric Biophen VII assay kit (Anaira, USA). Briefly, serially diluted pooled control serum (200%-3.125%) and appropriately diluted plasma samples from treated animals were analyzed using the Biophen VII kit according to manufacturer's instructions in 96-well, flat bottom, non-binding polystyrene assay plates (Corning, Corning, N.Y.) and absorbance at 405 nm was measured. A calibration curve was generated using the serial diluted control serum and used to determine levels of Factor VII in serum from treated animals.
# Initial studies were performed in eight to 10 week old, female C57BL/6 mice in two stages. In the first stage, the activity associated with the benchmark lipid DLinDMA was compared to the activity associated with modified forms of DLinDMA.
# [1] = Bilayer-to-hexagonal HII transition temperature (TBH) in equimolar mixtures with DSPS; format: physicochemical; details: equimolar with DSPS, pH 4.8; 31P NMR and DSC
# Description: Both techniques gave similar results.
# [2] = Pharmacokinetic and liver analysis of Cy-3 labeled siRNA in LN-siRNA systems; format: in vivo
# Description: A fluorescently labeled siRNA (Cy-3 labeled luciferase siRNA, Alnylam Pharmaceuticals) was used to measure the siRNA content in plasma and liver after iv administration of LN-siRNA systems. The measurements were done by first extracting the Cy3-siRNA from the protein-containing biological matrix and then analyzing the amount of Cy-3 label in the extract by fluorescence. Two extraction methods were used, a chloroform/methanol mixture for the plasma samples and a commercial phenol/chloroform mixture (Trizol® reagent) with the tissue samples.
# For plasma, blood was collected in EDTA-containing Vacutainer tubes and centrifuged at 1000×g for 10 min at 4-8° C. to isolate the plasma. The plasma was transferred to an eppendorf tube and either assayed immediately or stored in a −30° C. freezer. An aliquot of the plasma (100 μL maximum) was diluted to 500 μL with PBS (145 mM NaCl, 10 mM phosphate, pH 7.5), methanol (1.05 mL and chloroform (0.5 mL) was added, and the sample vortexed to obtain a clear, single phase solution. Water (0.5 mL) and chloroform (0.5 mL) was then added and the resulting emulsion sustained by mixing periodically for a minimum of 3 minutes. The mixture was centrifuged at 3000 rpm for 20 minutes and the top aqueous phase containing the Cy-3-label transferred to a new test tube. The fluorescence of the solution was measured using an SLM Fluorimeter at an excitation wavelength of 550 nm (2 nm bandwidth) and emission wavelength of 600 nm (16 nm bandwidth). A standard curve was generated by spiking aliquots of plasma from untreated animals with the Cy-3-siRNA containing formulation (0 to 15 μg/mL), and the sample processed as indicated above.
# For liver, sections (400-500 mg) of tissue from saline-perfused animals was accurately weighed and homogenized in 1 mL of Trizol using Fastprep tubes. An aliquot of the homogenate (typically equivalent to 50 mg of tissue) was transferred to an eppendorf tube and additional Trizol added to 1 mL final. Chloroform (0.2 mL) was added, and the solution was mixed and incubated for 2-3 min before being centrifuged for 15 min at 12,000×g. An aliquot (0.5 mL) of the top Cy-3-containing aqueous phase was diluted with 0.5 mL of PBS and the fluorescence of the sample measured as described above.
# The correlation between levels of siRNA delivered to the liver and FVII reduction was determined by encapsulating Cy-3 labeled siRNA in the selection of LN-siRNA systems covering a spectrum of in vivo activities shown in Table 8. Cy-3 fluorescence was measured in plasma and liver tissue 0.5 and 3.0 h post injection.
# [3] = In situ determination of apparent pKa using TNS fluorescence titration
# Description: In situ pKa measurements were made using the pH sensitive fluorescent probe TNS, using a modification of the approach previously published in Bailey, A. L. and Cullis, P. R., Biochemistry 33:12573-12580 (1994).
# Titrations of surface charge as a function of pH can then be used to determine the apparent pKa (hereafter referred to as pKa) of constituent lipids (Cullis, P. R., et al., Chem Phys Lipids 40:127-144 (1986)).
# [4] = Tolerability of DLin-K-DMA-containing LN-siRNA systems in mice at extreme doses
# Description: The tolerability of empty DLin-K-C2-DMA lipid particles (DLin-K-C2-DMA/DSPC/Chol/PEG-C-DOMG (40/10/40/10)) was evaluated by monitoring weight change, cageside observations, clinical chemistry and, in some instances, hematology in femal Sprague Dawley rats and female C57BL/6 mice. Animal weights were recorded prior to treatment and at 24 hours after intravenous treatment with various dosages. Data was recorded as % Change in Body Weight. In addition to body weight measurements, clinical chemistry panel, including liver function markers, was obtained at each dose level at 24 hours post-injection using an aliquot of the serum collected for FVII analysis. […] In some instances, additional animals were included in the treatment group to allow collection of whole blood for hematology analysis.
# The toxicity criteria measured were % change in body weight and serum levels of the liver enzyme markers, ALT and AST.
# [5] = Table 4, siRNA dose reducing serum FVII protein by 50% at 24 h, PFV LN-siRNA 40/10/40/10
# [6] = Table 8, FVII ED50 of the LN-siRNA system
# [7] = siRNA dose reducing serum FVII protein by 50% at 24 h, PFV LN-siRNA 40/10/40/10
# [8] = Table 6, siRNA dose reducing serum FVII protein by 50% at 24 h, PFV LN-siRNA 40/10/40/10
# [9] = siRNA 0-10 mg/kg, total lipid 0-164 mg/kg
# [10] = siRNA 46 mg/kg, total lipid 750 mg/kg
# [11] = siRNA 61 mg/kg, total lipid 1000 mg/kg
# [12] = siRNA 76 mg/kg, total lipid 1250 mg/kg
# [13] = siRNA 92 mg/kg, total lipid 1500 mg/kg
compound,measurement,setting,value
"1,2-Dilinoleoyl-3-dimethylaminopropane [DLinDAP]",ED50,Factor VII (FVII); [5],40 to 50 mg/kg
same,ED50,Factor VII (FVII); [6],12 to 25 mg/kg
same,FVII ED50,Factor VII (FVII),>25 mg/kg
same,ED50,Factor VII (FVII); [7],12 to 25 mg/kg
same,HII transition temperature,[1],26 °C
same,Liver Cy-3 siRNA,[2]; 0.5 h post injection,20.5 % injected dose
same,Plasma Cy-3 siRNA,[2]; 0.5 h post injection,46.6 % injected dose
same,Liver Cy-3 siRNA,[2]; 3.0 h post injection,16.5 % injected dose
same,Plasma Cy-3 siRNA,[2]; 3.0 h post injection,3.3 % injected dose
same,Apparent pKa,"[3]; in situ in preformed vesicles, TNS fluorescence titration, Table 11",5.7
"CCCCC/C=C\C/C=C\CCCCCCCCC1(CCCCCCCC/C=C\C/C=C\CCCCC)OCC(CN(C)C)O1 (racemic) [DLin-K-DMA, 2,2-Dilinoleyl-4-dimethylaminomethyl-[1,3]-dioxolane]",ED50,Factor VII (FVII); [5],~0.4 mg/kg
same,ED50,Factor VII (FVII); [8],~0.4 mg/kg
same,ED50,"Factor VII (FVII); Table 7, siRNA dose reducing serum FVII protein by 50% at 24 h, PFV LN-siRNA 40/10/40/10",~1 mg/kg
same,ED50,Factor VII (FVII); [6],0.3 mg/kg
same,FVII ED50,Factor VII (FVII),~0.4 mg/kg
same,FVII ED50,Factor VII (FVII); listed as DLin-K-DMA (racemic mixture),~0.3 mg/kg
same,fold more potent than the DLinDMA benchmark,"Factor VII (FVII); reducing serum FVII protein, mouse, head-to-head",~2.5 fold
same,ED50,Factor VII (FVII); [7],~0.4 mg/kg
same,ED50,"Factor VII (FVII); siRNA dose reducing serum FVII protein by 50% at 24 h, PFV LN-siRNA 40/10/40/10, listed as DLin-K-DMA racemic mixture",~0.3 mg/kg
same,siRNA dose up to which no changes in blood chemistry or body weight were observed,"[4]; compared to saline controls, mice",10 mg/kg
same,body weight lost,"[4]; maximum dose 92 mg siRNA/kg, 1500 mg total lipid/kg",6%
same,siRNA dose exceeded before severe (>10-fold) ALT/AST increases are observed,[4]; mice,exceeded 61 mg/kg
same,% Change Body Weight,[4]; [9],0%
same,ALT,[4]; [9],45 IU/L
same,AST,[4]; [9],90 IU/L
same,% Change Body Weight,[4]; [10],−5.0%
same,ALT,[4]; [10],174 IU/L
same,AST,[4]; [10],340 IU/L
same,increases in serum ALT and AST,[4]; [10],< 10 fold normal
same,% Change Body Weight,[4]; [11],−4.5%
same,ALT,[4]; [11],448 IU/L
same,AST,[4]; [11],816 IU/L
same,% Change Body Weight,[4]; [12],−5.5%
same,ALT,[4]; [12],1771 IU/L
same,AST,[4]; [12],4723 IU/L
same,% Change Body Weight,[4]; [13],−6.0%
same,ALT,[4]; [13],4723 IU/L
same,AST,[4]; [13],2094 IU/L
same,fold greater than the ED50 dose,[4]; siRNA dose of 10 mg/kg without changes,> 30 fold
same,fold more than the ED50,"[4]; siRNA dose of 46 mg/kg, first significant toxicity signs",150 fold
same,HII transition temperature,[1],19 °C
same,pKa,[3],5.6
"CCCCC/C=C\C/C=C\CCCCCCCCC1(CCCCCCCC/C=C\C/C=C\CCCCC)OCC(CCCN(C)C)O1 (centres unmarked) [DLin-K-C3-DMA, 2,2-Dilinoleyl-4-(3-dimethylaminopropyl)-[1,3]-dioxolane]",ED50,Factor VII (FVII); [8],~0.6 mg/kg
same,FVII ED50,Factor VII (FVII),~0.6 mg/kg
same,ED50,Factor VII (FVII); [7],~0.6 mg/kg
same,HII transition temperature,[1],18 °C
same,pKa,[3],6.8
"CCCCC/C=C\C/C=C\CCCCCCCCC1(CCCCCCCC/C=C\C/C=C\CCCCC)OCC(CCCCN(C)C)O1 (centres unmarked) [DLin-K-C4-DMA, 2,2-Dilinoleyl-4-(4-dimethylaminobutyl)-[1,3]-dioxolane]",ED50,Factor VII (FVII); [8],>3 mg/kg
same,FVII ED50,Factor VII (FVII),>3.0 mg/kg
same,fold less active in vivo than DLin-K-C3-DMA,"Factor VII (FVII); mouse, in vivo",more than 5 fold
same,ED50,Factor VII (FVII); [7],> 3 mg/kg
same,HII transition temperature,[1],18 °C
same,pKa,[3],6.8
"CCCCC/C=C\C/C=C\CCCCCCCCC1(CCCCCCCC/C=C\C/C=C\CCCCC)OCC(CN2CCN(C)CC2)O1 (centres unmarked) [DLin-K-MPZ, 2,2-Dilinoleyl-4-N-methylpepiazino-[1,3]-dioxolane]",ED50,Factor VII (FVII); [8],~1.5 mg/kg
same,FVII ED50,Factor VII (FVII),~1.5 mg/kg
same,fold less active than DLin-K-DMA,Factor VII (FVII); mouse FVII model,approximately 5 fold
same,ED50,Factor VII (FVII); [7],~1.5 mg/kg
same,pKa,[3],6.2
"CCCCC/C=C\C/C=C\CCCCCCCCOCC(CN(C)C)OCCCCCCCC/C=C\C/C=C\CCCCC (centres unmarked) [DLinDMA, 1,2-Dilinoleyloxy-3-dimethylaminopropane, reference compound]",ED50,"Factor VII (FVII); Table 3, siRNA dose reducing serum FVII protein by 50% at 24 h, single i.v. bolus, PFV LN-siRNA 40/10/40/10",~1 mg/kg
same,ED50,Factor VII (FVII); [5],~1 mg/kg
same,ED50,"Factor VII (FVII); Table 5, siRNA dose reducing serum FVII protein by 50% at 24 h, PFV LN-siRNA 40/10/40/10",~1 mg/kg
same,ED50,Factor VII (FVII); [6],1.0 mg/kg
same,FVII ED50,Factor VII (FVII),~1.0 mg/kg
same,ED50,Factor VII (FVII); [7],~1.0 mg/kg and 1 mg/kg
same,HII transition temperature,[1],27 °C
same,pKa,[3],6.4
same,molecules charged,[3]; at pH 7.4,5-10%
same,pKa,[3]; nucleic acid-lipid particles containing the cationic lipid,6.4
